Patent US20030096264A1, “Multi-parameter high throughput screening assays (MPHTS)” (Psychiatric Genomics, Inc., priority 2001, published 2003)

How the values were obtained:
[1] = test system: rat (rattus norvegicus) neuronal cells; test: Microarray expression profile of primary rat cortical neurons incubated with valproate; assay type: cell-based; conditions: 0.5 mM valproate, 3 days
From the text: This example describes experiments, which analyzed changes in the expression profile for rat (rattus norvegicus) neuronal cells induced by valproate, a drug used clinically to treat neuropsychiatric disorders such as bipolar disorder. […] Expression profiles for these genes are compared to expression profiles for orthologous genes in human schizophrenia patients.
Primary neuron cells were isolated from E19 rat embryos and cultured as follows. First, the cortex was dissected from each embryo and placed in HBSS solution. The HBSS solution was subsequently removed and replaced with 5 ml papain solution at a concentration of 10 units per ml. The cortex was then incubated in the papain solution for 10 minutes and at 37° C. After incubation, the Papain solution was removed and 10% NuSerum media (Becton Dickinson, Bedford Mass.) was added in its place. The cortex was then centrifuged at 1000 rpm for 10 minutes, after which time the solution was removed and 1 ml of media containing 0.1% DNase was added. Cells were titurated immediately to break up the tissue. The volume of the cell suspensions was brought up to 15 ml and the cells were counted.
Approximately 4×10^6 cells were plated per 10 cm dish, in NeuroBasal A (Invitrogen Corp., Carlsbad Calif.) medium containing B27 and insulin (25 μg/ml). The cell cultures were incubated in a humidified incubator with 5% CO2 and at 37° C. The culture media were changed every 2 days. Cells were incubated in 0.5 mM valproate for 3 days. Control cultures were also prepared and incubated under the same conditions (including the carrier DMSO) but without valproate.
mRNA was extracted from each group of cultures and expression profiles were measured on microarrays according to standard techniques (see the Detailed Description section, infra). Data from duplicate microarrays was statistically evaluated to identify genes that are differentially expressed in the presence of valproate, relative to expression levels in the absence of valproate.
Table 1, below, lists the twelve genes identified in these experiments as being differentially expressed in the presence of valproate, relative to its expression level in the absence of valproate. These genes were identified using a Rat Toxicology array from Incyte (Palo Alto, Calif.). Each gene is listed in Table 1 by its common or popular name, along with the GenBank Accession and Gene Identification (GI) numbers of the rat gene whose expression level was evaluated in these experiments. The “expression ratio” measured for each gene is also specified. Specifically, the expression ratio, Φ, was calculated using the formula: [formula]
where Ev is the expression level measured in cells incubated with valproate and Eo is the expression level in the absence of valproate.

[2] = test system: human neuroblastoma cell line NBFL; test: Microarray expression profile of NBFL cells incubated with valproate; assay type: cell-based; conditions: 0.5 mM valproate, 24 h
Method: The additional signature genes described here were identified using a human neuroblastoma cell line that is known in the art as NBFL (see, Symes et al., Proc. Natl. Acad. Sci. U.S.A. 1993, 90(2):572-576). NBFL cell cultures were maintained in DMEM medium supplemented with L-glutmine, antibiotics, 10% fetal bovine serum and 5% horse serum. Before treatment, cells were passaged, allowed to adhere overnight, and the medium was replaced with serum free medium for 24 hours. The cells were then incubated for 24 hours in either the presence or absence of valproate (0.5 mM), and in the absence of serum. mRNA was extracted from each group of cultures and sent to a commercial company for expression profiling by hybridization to microarrays. Data from at least three independent microarray experiments was then statistically evaluated to identify genes that are differentially expressed in the presence of valproate, relative to expression levels in the absence of valproate.
Table 3, below, list each of the genes whose expression level changed in cells exposed to valproate, identified using a UniGem V2 array from Incyte (Palo Alto, Calif.) and also provides the expression ratio ((), defined in Example 1, supra) measured for each gene. Each gene is identified in Table 3 by its common name, as well as by the GenBank Accession and Gene Identification (GI) numbers for its nucleotide sequence. A cDNA sequence for each gene listed in Table 3 is also provided in the accompanying Sequence Listing, and its sequence identifier is specified in Table 3 along with the GenBank Accession number. Table 3 also indicates the Unigene cluster number for each gene from a recent build of the NCBI Unigene database.

## CCCC(CCC)C(=O)O [valproate]
[1]; vs no valproate, M22357 SEQ ID NO: 1
  expression ratio Φ: myelin-associated glycoprotein (MAG): 2.16
[1]; AF178845 SEQ ID NO: 5
  expression ratio Φ: calmodulin: −1.95
[1]; AY004290 SEQ ID NO: 4
  expression ratio Φ: SCG10: −1.43
[1]; D25221 SEQ ID NO: 11
  expression ratio Φ: selenoprotein P: 1.51
[1]; J03753 SEQ ID NO: 12
  expression ratio Φ: plasma membrane calcium ATPase: −1.36
[1]; L21191 SEQ ID NO: 3
  expression ratio Φ: GAP-43: −1.88
[1]; M18630 SEQ ID NO: 2
  expression ratio Φ: 2′,3′-cyclic nucleotide-3′ phosphodiesterase (CNPI): 1.92
[1]; M29275 SEQ ID NO: 6
  expression ratio Φ: calcineurin A: −1.43
[1]; M75148 SEQ ID NO: 8
  expression ratio Φ: kinesin light chain C: −1.53
[1]; M86443 SEQ ID NO: 10
  expression ratio Φ: hypoxanthine-guanine phosphoribosyltransferase: −1.37
[1]; U09567 SEQ ID NO: 9
  expression ratio Φ: cysteine-rich protein: 1.49
[1]; U48245 SEQ ID NO: 7
  expression ratio Φ: protein kinase C-binding protein NELL2: −1.7
[2]; serum free, SEQ ID NO: 25
  expression ratio Φ: nidogen (NID): 1.7
[2]; SEQ ID NO: 26
  expression ratio Φ: silver (SIL): 1.6
[2]; SEQ ID NO: 27
  expression ratio Φ: Homo sapiens clone 23798 and 23825: 1.5
[2]; SEQ ID NO: 28
  expression ratio Φ: LIM protein: 1.4
[2]; SEQ ID NO: 29
  expression ratio Φ: carnitine palmitoyltransferase II: 1.4
[2]; SEQ ID NO: 30
  expression ratio Φ: iduronate-2-sulfatase: 1.4
[2]; SEQ ID NO: 31
  expression ratio Φ: dynamin 1: 1.4
[2]; SEQ ID NO: 32
  expression ratio Φ: myosin IB: 1.4
[2]; SEQ ID NO: 33
  expression ratio Φ: EGF-like-domain: 1.4
[2]; SEQ ID NO: 34
  expression ratio Φ: islet cell autoantigen 1: −1.4
[2]; SEQ ID NO: 35
  expression ratio Φ: regulator of G-protein signaling 5: −1.4
[2]; SEQ ID NO: 36
  expression ratio Φ: XPA binding protein 1: −1.4
[2]; SEQ ID NO: 37
  expression ratio Φ: P311 protein: −1.4
[2]; SEQ ID NO: 38
  expression ratio Φ: SWI/SNF: −1.4
[2]; SEQ ID NO: 39
  expression ratio Φ: ALL1: −1.4
[2]; SEQ ID NO: 40
  expression ratio Φ: RNA binding motif: −1.4
[2]; SEQ ID NO: 41
  expression ratio Φ: SMAD1: −1.4
[2]; SEQ ID NO: 42
  expression ratio Φ: NADH dehydrogenase (ubiquinone): −1.4
[2]; SEQ ID NO: 43
  expression ratio Φ: calmodulin 2: −1.4
[2]; SEQ ID NO: 44
  expression ratio Φ: vimentin: −1.4
[2]; SEQ ID NO: 45
  expression ratio Φ: GRB2-associated binding protein 1: −1.5
[2]; SEQ ID NO: 46
  expression ratio Φ: splicing factor 3b (subunit 3): −1.5
[2]; SEQ ID NO: 47
  expression ratio Φ: DKFZp547DO26_r1 (EST): −1.5
[2]; SEQ ID NO: 48
  expression ratio Φ: insulinoma-associated 1 (INSM1): −1.6
[2]; SEQ ID NO: 49
  expression ratio Φ: neuroendocrine secretory protein 55: −1.6
[2]; SEQ ID NO: 50
  expression ratio Φ: v-yes-1: −1.6
[2]; SEQ ID NO: 51
  expression ratio Φ: chromodomain helicase DNA binding: −1.6
[2]; SEQ ID NO: 52
  expression ratio Φ: cholinergic receptor: −1.7
[2]; SEQ ID NO: 53
  expression ratio Φ: dopmine β-hydroxylase (DBH): -1.7
[2]; SEQ ID NO: 54
  expression ratio Φ: dopa decarboxylase (DDC): −2
[2]; SEQ ID NO: 55
  expression ratio Φ: chromogranin B (CG-B): −2.1
